# Experimental data as given in publication PMC2362735, “New semisynthetic vinca alkaloids: chemical, biochemical and cellular studies” (British Journal of Cancer, 1999).
# pIC50: −log10 of the molar value.
# Columns and labels:
# [1] = tested on: Mouse leukaemia P388 cells; assay: In vivo anti-tumour effect on P388 mouse leukaemia, single i.p. dose; conditions: P388 mice, single dose i.p.
# From the text: (§1) The numerous antimitotic drugs already developed and therapeu- tically used for a large number of pathologies belong to different classes based on their chemical structure and other distinctive features. Antimitotic drugs usually target the tubulin/microtubule network of the cytoskeleton that is formed by assembly of cyto- plasmic tubulin dimers. The stability of the different microtubular structures varies considerably; some of their functions depend on their lability. The lability is augmented by the extreme sensitivity to various drugs. Several synthetic and natural compounds interact specifically with tubulin and/or microtubule, fundamentally destroying its dynamic character and leading to cell death. […] Because of their extensive clinical use, it is important to synthesize additional agents having at least the same biological activity. […] Nevertheless, it is unclear yet how the anti-calmodulin activity of these drugs is related to their desired and undesired pharmacological effects. […] The synthesis of the KAR derivatives are presented. […] Taxol, GTP and trifluoperazine were purchased from Sigma. All organic reagents for synthesis of the new compounds were obtained from Aldrich and were of the highest grade. All other chemicals were reagent grade commercial preparations. […] Tubulin was stored in 1 M sucrose, 10 mM sodium phosphate buffer, 0.5 mM magnesium chloride and 0.1 mM GTP, pH 7.0, at -80C and dialysed against the appropriate buffer before use. […] PFK, aldolase and glycerol-3-phosphate dehydrogenase- triosephosphate isomerase purified from rabbit skeletal muscle were purchased in ammonium sulphate suspensions from Sigma or Boehringer. The enzyme suspensions were centrifuged at 10 000g for 5 min. The pellets were suspended in the appropriate buffer, then the enzymes were gel filtered or dialysed in the same buffer to remove ammonium sulphate. […] (Figure 1B; R1 , CH3; R2 , CH2 CH2 Cl). […] After 2 h incubation at room temperature, 200 ml dried toluene was added to the reaction mixture. […] The mixture was stirred for 30 min. After separation of the organic phase, it was washed with water (3 x 30 ml) and dried with potassium sulphate and evaporated on a water bath of 35-40C at 20-27 hPa. The resulting material was chromatographed on silica gel (500 g, bead size of 0.040- 0.063 mm) column (30 mm x 500 mm) using ethyl acetate/ethanol (9:1) mixture as eluent. […] The mixture was kept for 4 h at room temperature and then evaporated on a water bath at 40C under a vacuum of 80 hPa to a final volume of 5-6 ml. […] (Figure 1B, R1 , CHO; R2 , CH2 CH2 Cl). […] Synthesis of KAR-4 [3-allyl-2,4-dioxo-3,5-spiro-oxazolidino- 4-deacetoxy-vinblastine] (Figure 1B; R1 , CH3; R2 , CH2 CH=CH2 ). […] NMR measurements were carried out on a Varian Unity plus-500 instrument (500 MHz for 1H and 125 MHz for 13C) in DMSO. Chemical shifts were determined relative to dTMS = 0.00 p.p.m. 1H and 13C signal assignments were verified by a concerted use of two-dimensional 1H-1H and 1H-13C shift correlation methods (DQFCOSY, HSQC, HMBC) and NOESY experiments. The gradient-enhanced DQFCOSY, HSQC, HMBC and NOESY experiments were recorded by using the standard spectrometer software package. A mixing time of tmix = 0.5 s was used for the NOESY experiments.
# [2] = tested on: Human neuroblastoma cell line (SH-SY5Y); assay: Microculture tetrazolium assay (MTA), cytotoxicity; conditions: read-out: Cytotoxicity MTA IC50, 4-day treatment, MTT
# From the text: as §1
# tubulin = assay: Taxol-induced tubulin polymerization, turbidity at 350 nm; type: biochemical, calf; conditions: taxol-induced assembly, MES buffer pH 6.8, 37C; average of three independent measurements; read-out: Anti-tubulin effect, turbidity at 350 nm, IC50
# From the text: as §1
compound,measurement,setting,value
"CC[C@]1(O)C[C@@H]2CN(CCc3c([nH]c4ccccc34)[C@@](C(=O)OC)(c3cc4c(cc3OC)N(C)[C@@H]3[C@]45CCN4CC=C[C@@](CC)(C[C@@]36OC(=O)N(CCCl)C6=O)[C@H]45)C2)C1 [KAR-2, 3′-(β-chloroethyl)-2′,4′-dioxo-3,5′-spiro-oxazolidino-4-deacetoxy-vinblastine]",maximal tolerated dose,[1],80 mg/kg
same,pIC50,[2],6.51
same,pIC50,tubulin,6.70
